Measured values as given in the NIST ThermoML archive (doi:10.1016/j.fluid.2004.10.022).

How the values were obtained:
[1] = refractive index (Na D-line) (dimensionless); conditions: 298.15 K; 101.33 kPa; Liquid; Standard Abbe refractometry
[2] = Liquid; for mass density: 101.33 kPa

CC(=O)OCC(C)C [2-methylpropyl ethanoate]
Conditions | refractive index
[1] | 1.3876

[2]
Conditions | mass density [kg/m3] | vapor or sublimation pressure [kPa]
293.15 K | 866.12 | –
307.43 K | – | 3.99
315.56 K | – | 5.99
322.93 K | – | 8.48
328.64 K | – | 10.98
335.75 K | – | 14.98
341.55 K | – | 18.96
342.95 K | – | 20
346.88 K | – | 23.44
351.45 K | – | 27.95
355.75 K | – | 32.86
359.66 K | – | 37.89
363.22 K | – | 42.93
366.39 K | – | 47.84
368.76 K | – | 51.85
371.61 K | – | 57.06
374.55 K | – | 62.82
376.93 K | – | 67.79
379.15 K | – | 72.78
381.03 K | – | 77.2
383.63 K | – | 83.72
385.84 K | – | 89.68
387.69 K | – | 94.78
389.16 K | – | 98.95
389.9 K | – | 100
391.39 K | – | 105.57

CC(=O)OC(C)(C)C [1,1-dimethylethyl ethanoate]
Conditions | refractive index
[1] | 1.384

[2]
Conditions | mass density [kg/m3] | vapor or sublimation pressure [kPa]
298.15 K | 860.53 | –
307.53 K | – | 8.99
311.79 K | – | 10.99
315.64 K | – | 13.09
319.82 K | – | 15.73
324.28 K | – | 19.04
325.46 K | – | 20
328.94 K | – | 23.09
332.36 K | – | 26.48
336.12 K | – | 30.67
339.58 K | – | 35.02
342.46 K | – | 39.04
345.75 K | – | 43.98
348.84 K | – | 49.09
352.07 K | – | 54.94
354.95 K | – | 60.02
357.17 K | – | 65.33
359.63 K | – | 70.88
361.83 K | – | 76.15
363.85 K | – | 81.26
366 K | – | 87.01
367.99 K | – | 92.58
369.46 K | – | 96.91
370.68 K | – | 100.64
370.86 K | – | 100
372.26 K | – | 105.59

CC(C)(C)O [2-methylpropan-2-ol]
Conditions | refractive index
[1] | 1.3851

[2]
Conditions | mass density [kg/m3] | vapor or sublimation pressure [kPa]
300.93 K | – | 6.93
303.15 K | 775.4 | –
304.86 K | – | 8.76
309.12 K | – | 11.16
313.25 K | – | 14.03
315.48 K | – | 15.81
320.17 K | – | 20
320.75 K | – | 20.63
325.05 K | – | 25.76
328.35 K | – | 30.37
331.45 K | – | 35.33
334.15 K | – | 40.21
336.65 K | – | 45.17
338.85 K | – | 49.98
341.05 K | – | 55.12
342.95 K | – | 59.92
344.85 K | – | 65.12
346.45 K | – | 69.66
348.15 K | – | 74.84
349.75 K | – | 79.98
351.25 K | – | 85.09
352.65 K | – | 90.08
353.95 K | – | 94.97
355.15 K | – | 99.63
355.59 K | – | 100
355.65 K | – | 101.33
356.55 K | – | 105.13
357.65 K | – | 109.82
358.85 K | – | 115.07
359.83 K | – | 119.91

CC(C)CO [2-methyl-1-propanol]
Conditions | refractive index
[1] | 1.3937

[2]
Conditions | mass density [kg/m3] | vapor or sublimation pressure [kPa]
298.15 K | 797.83 | –
342.52 K | – | 20
381.09 K | – | 100
